The source of these data is ChEMBL document CHEMBL1144945, “Development of progesterone receptor antagonists from 1,2-dihydrochromeno[3,4-f]quinoline agonist pharmacophore” (Bioorg Med Chem Lett, 2003).

Assay [1] deals with T1, Progesterone receptor (Homo sapiens, UniProt P06401).
T1 sequence (P06401 whole entry): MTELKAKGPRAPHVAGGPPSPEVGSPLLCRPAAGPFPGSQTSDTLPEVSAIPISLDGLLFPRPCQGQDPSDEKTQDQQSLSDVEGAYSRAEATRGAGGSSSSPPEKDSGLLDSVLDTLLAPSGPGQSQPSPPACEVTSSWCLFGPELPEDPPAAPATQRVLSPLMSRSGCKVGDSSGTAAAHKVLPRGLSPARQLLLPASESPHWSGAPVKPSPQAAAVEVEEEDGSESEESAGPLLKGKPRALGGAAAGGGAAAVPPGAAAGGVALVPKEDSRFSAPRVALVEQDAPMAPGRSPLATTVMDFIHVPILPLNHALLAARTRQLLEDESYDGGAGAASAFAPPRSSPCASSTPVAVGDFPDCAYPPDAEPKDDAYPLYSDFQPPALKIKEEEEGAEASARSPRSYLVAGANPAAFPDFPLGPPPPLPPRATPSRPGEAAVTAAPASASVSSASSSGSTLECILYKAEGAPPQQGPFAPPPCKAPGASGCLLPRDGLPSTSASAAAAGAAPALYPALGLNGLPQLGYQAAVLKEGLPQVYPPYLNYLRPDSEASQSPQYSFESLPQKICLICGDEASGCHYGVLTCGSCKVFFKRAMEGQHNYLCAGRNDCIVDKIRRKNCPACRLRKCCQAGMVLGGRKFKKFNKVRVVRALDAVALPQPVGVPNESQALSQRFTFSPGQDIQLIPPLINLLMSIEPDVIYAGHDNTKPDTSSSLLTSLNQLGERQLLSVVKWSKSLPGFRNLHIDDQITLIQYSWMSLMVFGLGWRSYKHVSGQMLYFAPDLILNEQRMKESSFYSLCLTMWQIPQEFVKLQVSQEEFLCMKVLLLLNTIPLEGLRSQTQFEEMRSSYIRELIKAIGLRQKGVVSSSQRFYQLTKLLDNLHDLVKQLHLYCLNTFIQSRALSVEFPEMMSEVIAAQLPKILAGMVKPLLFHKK
Description: Antagonistic activity at human progesterone receptor in CV-1 cells.

Assay [2] concerns the target T1, Progesterone receptor. In words: Binding towards human progesterone receptor; Not tested.
In assay [3] the target is T1, Progesterone receptor. Nature of the assay: Inhibition of human progesterone receptor in T47D human breast cancer cell; not active (<20% efficacy and/or >10 mM potency). In kind it is cell-based.
Assay [4] has as its target T1, Progesterone receptor. Nature of the assay: Effective concentration for human progesterone receptor in T47D human breast cancer cell; not active (<20% efficacy and/or >10 mM potency). The conditions noted are these: cancer cell lines.
In assay [5] the target is T2, Progesterone receptor (Homo sapiens) (UniProt P06401).
T2 sequence (whole entry): T1 sequence (P06401 whole entry)
In words: Agonist efficacy for human progesterone receptor in T47D human breast cancer cell; not active (<20% efficacy and/or >10 mM potency). In kind it is functional, cell-based.

The target of assay [6] is T1, Progesterone receptor. In words: Effective concentration for antagonistic activity towards human progesterone receptor in CV-1 cells; not active (<20% efficacy and/or >10 mM potency). The assay is classed as functional, cell-based.
Assay [7] addresses T1, Progesterone receptor. This is another data set of the same source.
Description: Binding affinity at human progesterone receptor.
In assay [8] the target is T2, Progesterone receptor (Homo sapiens). Nature of the assay: Antagonist efficacy for human progesterone receptor in CV-1 cells; not active (<20% efficacy and/or >10 mM potency). The assay is classed as functional, cell-based.
Assay [9] has as its target T1, Progesterone receptor. The source holds these as a separate data set.
Description: Inhibition of human progesterone receptor activation in T47D human breast cancer cell.
For assay [10], the target named is T1, Progesterone receptor. Nature of the assay: Effective concentration for human progesterone in T47D human breast cancer cell; not active (<20% efficacy and/or >10 mM potency). The assay is classed as cell-based. The note with it: cancer cell lines.

Molecules are shown by their SMILES. pEC50, pIC50, pKi: −log10 of the molar value. Activity calls are given as the source filed them.

Usually pEC50 stands for −log10 of the EC50, conventionally taken in molar units. By pKi is commonly meant the Ki on a negative log10 scale, so that one unit is a factor of ten. Read a low pKi as a large Ki. In turn, `CC1=CC(C)(C)Nc2ccc3c(c21)COc1c-3cc(Br)c(C=O)c1F` had a negative-log EC50 (pEC50) at Progesterone receptor [1] of 6.24. Further, the pKi on Progesterone receptor [2] is 6.54.
As to `CC1=CC(C)(C)Nc2ccc3c(c21)COc1cc(C(F)(F)F)ccc1-3`, at Progesterone receptor [3], the IC50 entry is recorded as “Not Active”. Moreover, the EC50 entry at Progesterone receptor [4] and on Progesterone receptor [6] was “Not Active” in each case. The Efficacy entry in assay [5] and in [8] was “inactive” in each case. At Progesterone receptor [7], this molecule showed a pKi of under 6.00.
One may read the pIC50 as the negative decadic logarithm of the IC50, by convention in mol/L. Low values mean a large IC50, high ones a small IC50. Turning to `CC1=CC(C)(C)Nc2ccc3c(c21)COc1c(Cl)cccc1-3`, the Efficacy result in assay [5] is “inactive”. Also, the pIC50 at Progesterone receptor [9] is 6.11. Also, the EC50 result on Progesterone receptor [10] was “Not Active”. Also, the pEC50 on Progesterone receptor [1] is 6.24.
